Test results published in patent US20060003893A1, “Controlled release fertilizers employing ureaform compounds and processes for making same” (priority 2004, published 2006).

Assay: Controlled Release Soil Test (irrigated soil burial test)
Type: physicochemical
From the text: To measure the relative solubilities of the products in soil, an irrigated soil burial test (“Controlled Release Soil Test”) was devised such that granules could be retrieved for measurement of their nitrogen content. The following is a description of the test.
Controlled Release Soil Test
Procedure for Controlled Release Soil Test
• 1. Screen the sample to obtain −6+7 Tyler mesh granules for the test. • 2. Label a freezer container with the test description. • 3. Place the freezer container on the 1200 g balance and tare out. • 4. Place 300 g of potting soil with a 40% moisture content into the container and record the weight. • 5. Over the soil place two (2) pieces of fiberglass mesh with 14 meshes to the inch and 1/16 inch openings. • 6. Tare out the container with the soil and fiberglass mesh screens. • 7. Spread 5 grams of −6+7 Tyler mesh granules over the screen in a single layer and record the weight. • 8. Place a large square of fiberglass mesh over the granules, with a stainless steel screen cut to fit over it, so that the shape of the container has been mirrored. • 9. Once this is shaped, tare out the container and add 150 g of soil and record the weight. • 10. Repeat this process for each sample to be tested (in triplet if possible). • 11. After all containers are completed, fill a mist spray bottle with de-ionized water and prime. • 12. […]

time to go into solution: ≤ 9 h
Nitrogen Retained (%) 9 Hours (9 hours): 0%
SMILES: NC(N)=O [UREA, urea]
